Results taken from ChEMBL document CHEMBL4004803, “Syntheses and antibacterial activity of soluble 9-bromo substituted indolizinoquinoline-5,12-dione derivatives” (Eur J Med Chem, 2017).
Values after ≈ are worked out from the molar mass of the structure shown.

Experiments:
[1] = tested on: Staphylococcus aureus; assay: Antibacterial activity against […] Staphylococcus aureus ATCC 25923 after 20 to 24 hrs by two-fold microdilution method; type: functional
[2] = tested on: Staphylococcus haemolyticus; assay: Antibacterial activity against Staphylococcus haemolyticus CICC 10373 after 20 to 24 hrs by two-fold microdilution method; type: functional
[3] = tested on: Staphylococcus epidermidis; assay: Antibacterial activity against Staphylococcus epidermidis ATCC 12228 after 20 to 24 hrs by two-fold microdilution method; type: functional
[4] = tested on: Enterococcus faecalis; assay: Antibacterial activity against Enterococcus faecalis ATCC 29212 after 20 to 24 hrs by two-fold microdilution method; type: functional
[5] = tested on: Staphylococcus aureus; assay: Antibacterial activity against methicillin-resistant Staphylococcus aureus 122045 clinical isolate after 20 to 24 hrs by two-fold microdilution method; type: functional
[6] = tested on: Staphylococcus aureus; assay: Antibacterial activity against methicillin-resistant Staphylococcus aureus 212014 clinical isolate after 20 to 24 hrs by two-fold microdilution method; type: functional
[7] = tested on: Staphylococcus aureus; assay: Antibacterial activity against methicillin-resistant Staphylococcus aureus 214026 clinical isolate after 20 to 24 hrs by two-fold microdilution method; type: functional
[8] = tested on: Staphylococcus aureus; assay: Antibacterial activity against methicillin-resistant Staphylococcus aureus clinical isolate after 20 to 24 hrs by two-fold microdilution method; type: functional
[9] = tested on: Staphylococcus aureus; assay: Antibacterial activity against methicillin-resistant Staphylococcus aureus 110414 clinical isolate after 20 to 24 hrs by two-fold microdilution method; type: functional
[10] = tested on: Staphylococcus aureus; assay: Antibacterial activity against methicillin-resistant Staphylococcus aureus 10281-2 clinical isolate after 20 to 24 hrs by two-fold microdilution method; type: functional
[11] = tested on: Staphylococcus aureus; assay: Antibacterial activity against methicillin-resistant Staphylococcus aureus GLH14 clinical isolate after 20 to 24 hrs by two-fold microdilution method; type: functional
[12] = tested on: Staphylococcus aureus; assay: Antibacterial activity against methicillin-resistant Staphylococcus aureus GLH15 clinical isolate after 20 to 24 hrs by two-fold microdilution method; type: functional
[13] = tested on: Staphylococcus aureus; assay: Antibacterial activity against methicillin-resistant Staphylococcus aureus 122710-2 clinical isolate after 20 to 24 hrs by two-fold microdilution method; type: functional
[14] = tested on: Staphylococcus aureus; assay: Antibacterial activity against methicillin-resistant Staphylococcus aureus 122820-2 clinical isolate after 20 to 24 hrs by two-fold microdilution method; type: functional
[15] = tested on: Staphylococcus aureus; assay: Antibacterial activity against methicillin-resistant Staphylococcus aureus 123152 clinical isolate after 20 to 24 hrs by two-fold microdilution method; type: functional
[16] = tested on: Staphylococcus aureus; assay: Antibacterial activity against methicillin-resistant Staphylococcus aureus 12308 clinical isolate after 20 to 24 hrs by two-fold microdilution method; type: functional
[17] = tested on: Staphylococcus aureus; assay: Antibacterial activity against methicillin-resistant Staphylococcus aureus 130031 clinical isolate after 20 to 24 hrs by two-fold microdilution method; type: functional
[18] = tested on: Staphylococcus aureus; assay: Antibacterial activity against methicillin-resistant Staphylococcus aureus 221022 clinical isolate after 20 to 24 hrs by two-fold microdilution method; type: functional
[19] = tested on: Staphylococcus aureus; assay: Antibacterial activity against methicillin-resistant Staphylococcus aureus 221014 clinical isolate after 20 to 24 hrs by two-fold microdilution method; type: functional
[20] = tested on: Staphylococcus aureus; assay: Antibacterial activity against methicillin-resistant Staphylococcus aureus 224001 clinical isolate after 20 to 24 hrs by two-fold microdilution method; type: functional
[21] = tested on: Staphylococcus aureus; assay: Antibacterial activity against methicillin-resistant Staphylococcus aureus 316038 clinical isolate after 20 to 24 hrs by two-fold microdilution method; type: functional
[22] = tested on: Staphylococcus aureus; assay: Antibacterial activity against methicillin-resistant Staphylococcus aureus 316031 clinical isolate after 20 to 24 hrs by two-fold microdilution method; type: functional
[23] = tested on: Staphylococcus aureus; assay: Antibacterial activity against methicillin-resistant Staphylococcus aureus 3250299 clinical isolate after 20 to 24 hrs by two-fold microdilution method; type: functional
[24] = tested on: Staphylococcus aureus; assay: Antibacterial activity against methicillin-resistant Staphylococcus aureus 502025 clinical isolate after 20 to 24 hrs by two-fold microdilution method; type: functional
[25] = tested on: Staphylococcus aureus; assay: Antibacterial activity against methicillin-resistant Staphylococcus aureus 518036 clinical isolate after 20 to 24 hrs by two-fold microdilution method; type: functional
[26] = tested on: Staphylococcus aureus; assay: Antibacterial activity against methicillin-resistant Staphylococcus aureus 519030 clinical isolate after 20 to 24 hrs by two-fold microdilution method; type: functional
[27] = tested on: Staphylococcus aureus; assay: Antibacterial activity against methicillin-resistant Staphylococcus aureus 530231 clinical isolate after 20 to 24 hrs by two-fold microdilution method; type: functional
[28] = tested on: Staphylococcus aureus; assay: Antibacterial activity against methicillin-resistant Staphylococcus aureus 531026 clinical isolate after 20 to 24 hrs by two-fold microdilution method; type: functional
[29] = tested on: Staphylococcus aureus; assay: Antibacterial activity against methicillin-resistant Staphylococcus aureus 614019 clinical isolate after 20 to 24 hrs by two-fold microdilution method; type: functional
[30] = tested on: Staphylococcus aureus; assay: Antibacterial activity against methicillin-resistant Staphylococcus aureus 1012029 clinical isolate after 20 to 24 hrs by two-fold microdilution method; type: functional
[31] = tested on: Staphylococcus aureus; assay: Antibacterial activity against methicillin-resistant Staphylococcus aureus 503025 clinical isolate after 20 to 24 hrs by two-fold microdilution method; type: functional
[32] = tested on: Staphylococcus aureus; assay: Antibacterial activity against methicillin-resistant Staphylococcus aureus 908046 clinical isolate after 20 to 24 hrs by two-fold microdilution method; type: functional
[33] = tested on: Staphylococcus aureus; assay: Antibacterial activity against methicillin-resistant Staphylococcus aureus 912014 clinical isolate after 20 to 24 hrs by two-fold microdilution method; type: functional
[34] = tested on: Staphylococcus aureus; assay: Antibacterial activity against methicillin-resistant Staphylococcus aureus 1023043 clinical isolate after 20 to 24 hrs by two-fold microdilution method; type: functional
[35] = tested on: Staphylococcus aureus; assay: Antibacterial activity against methicillin-resistant Staphylococcus aureus 1024010 clinical isolate after 20 to 24 hrs by two-fold microdilution method; type: functional
[36] = tested on: Staphylococcus aureus; assay: Antibacterial activity against methicillin-resistant Staphylococcus aureus 1024004-2 clinical isolate after 20 to 24 hrs by two-fold microdilution method; type: functional
[37] = tested on: Staphylococcus aureus; assay: Antibacterial activity against methicillin-resistant Staphylococcus aureus 1026211 clinical isolate after 20 to 24 hrs by two-fold microdilution method; type: functional
[38] = tested on: Staphylococcus aureus; assay: Antibacterial activity against methicillin-resistant Staphylococcus aureus 1103006 clinical isolate after 20 to 24 hrs by two-fold microdilution method; type: functional
[39] = tested on: Staphylococcus aureus; assay: Antibacterial activity against methicillin-resistant Staphylococcus aureus 1106003 clinical isolate after 20 to 24 hrs by two-fold microdilution method; type: functional
[40] = tested on: Staphylococcus aureus; assay: Antibacterial activity against methicillin-resistant Staphylococcus aureus 1108204 clinical isolate after 20 to 24 hrs by two-fold microdilution method; type: functional
[41] = tested on: Staphylococcus aureus; assay: Antibacterial activity against methicillin-resistant Staphylococcus aureus 1207026 clinical isolate after 20 to 24 hrs by two-fold microdilution method; type: functional
[42] = tested on: Staphylococcus aureus; assay: Antibacterial activity against methicillin-resistant Staphylococcus aureus 1212057-1 clinical isolate after 20 to 24 hrs by two-fold microdilution method; type: functional
[43] = tested on: Staphylococcus aureus; assay: Antibacterial activity against methicillin-resistant Staphylococcus aureus 10844 clinical isolate after 20 to 24 hrs by two-fold microdilution method; type: functional
[44] = tested on: Staphylococcus aureus; assay: Antibacterial activity against methicillin-resistant Staphylococcus aureus 109244 clinical isolate after 20 to 24 hrs by two-fold microdilution method; type: functional
[45] = tested on: Staphylococcus aureus; assay: Antibacterial activity against methicillin-resistant Staphylococcus aureus 112047 clinical isolate after 20 to 24 hrs by two-fold microdilution method; type: functional
[46] = tested on: Staphylococcus aureus; assay: Antibacterial activity against methicillin-resistant Staphylococcus aureus 125025 clinical isolate after 20 to 24 hrs by two-fold microdilution method; type: functional
[47] = Solubility of the compound in water at 25 degC measured after shaking for 4 hrs by UV method; type: physicochemical; conditions: buffer, 4 h

With O=C1c2cccnc2C(=O)c2c1c(C(=O)OCCCCN1CCOCC1)c1ccc(Br)cn21 the MIC [1] was 0.063 mg/L (≈ 0.123 µM), the MIC [2] was 0.125 mg/L (≈ 0.244 µM) and the MIC [3] was ≤ 0.0078 mg/L. For the same compound, the MIC [4] was 0.25 mg/L (≈ 0.488 µM), the MIC [5] was 0.125 mg/L (≈ 0.244 µM) and the MIC [6] was 0.125 mg/L (≈ 0.244 µM). It also gave an MIC [7] of 0.063 mg/L (≈ 0.123 µM), an MIC50 [8] of 0.5 mg/L (≈ 0.976 µM) and an MIC90 [8] of 1 mg/L (≈ 1.95 µM). It also gave an MIC [9] of 0.5 mg/L (≈ 0.976 µM), an MIC [10] of 0.5 mg/L (≈ 0.976 µM) and an MIC [11] of 0.5 mg/L (≈ 0.976 µM). For the same compound, the MIC [12] was 0.25 mg/L (≈ 0.488 µM), the MIC [13] was 0.25 mg/L (≈ 0.488 µM) and the MIC [14] was 0.125 mg/L (≈ 0.244 µM). It also gave an MIC [15] of 0.25 mg/L (≈ 0.488 µM), an MIC [16] of 0.25 mg/L (≈ 0.488 µM) and an MIC [17] of 1 mg/L (≈ 1.95 µM). For the same compound, the MIC [18] was 0.5 mg/L (≈ 0.976 µM), the MIC [19] was 1 mg/L (≈ 1.95 µM) and the MIC [20] was 1 mg/L (≈ 1.95 µM). For the same compound, the MIC [21] was 0.25 mg/L (≈ 0.488 µM), the MIC [22] was 0.5 mg/L (≈ 0.976 µM) and the MIC [23] was 0.5 mg/L (≈ 0.976 µM). For the same compound, the MIC [24] was 0.5 mg/L (≈ 0.976 µM), the MIC [25] was 0.5 mg/L (≈ 0.976 µM) and the MIC [26] was 1 mg/L (≈ 1.95 µM). The MIC [27] was 0.5 mg/L (≈ 0.976 µM), the MIC [28] was 0.25 mg/L (≈ 0.488 µM) and the MIC [29] was 0.5 mg/L (≈ 0.976 µM). The MIC [30] was 0.25 mg/L (≈ 0.488 µM), the MIC [31] was 1 mg/L (≈ 1.95 µM) and the MIC [32] was 0.125 mg/L (≈ 0.244 µM). It also gave an MIC [33] of 0.5 mg/L (≈ 0.976 µM), an MIC [34] of 0.25 mg/L (≈ 0.488 µM) and an MIC [35] of 0.5 mg/L (≈ 0.976 µM). For the same compound, the MIC [36] was 0.5 mg/L (≈ 0.976 µM), the MIC [37] was 0.063 mg/L (≈ 0.123 µM) and the MIC [38] was > 16 mg/L. For the same compound, the MIC [39] was 16 mg/L (≈ 31.2 µM), the MIC [40] was 0.5 mg/L (≈ 0.976 µM) and the MIC [41] was 0.5 mg/L (≈ 0.976 µM). For the same compound, the MIC [42] was 0.25 mg/L (≈ 0.488 µM), the MIC [43] was 0.5 mg/L (≈ 0.976 µM) and the MIC [44] was 0.25 mg/L (≈ 0.488 µM). For the same compound, the MIC [45] was 0.25 mg/L (≈ 0.488 µM), the MIC [46] was 0.25 mg/L (≈ 0.488 µM) and the solubility [47] was “Insoluble”.
In the case of O=C1c2cccnc2C(=O)c2c1c(C(=O)OCCCCCCN1CCOCC1)c1ccc(Br)cn21, the MIC [1] is reported as ≤ 0.0078 mg/L, the MIC [2] is reported as 0.031 mg/L (≈ 0.0574 µM) and the MIC [3] is reported as ≤ 0.0078 mg/L. The MIC [4] was 0.063 mg/L (≈ 0.117 µM), the MIC [5] was ≤ 0.0078 mg/L and the MIC [6] was ≤ 0.0078 mg/L. The MIC [7] was ≤ 0.0078 mg/L, the MIC50 [8] was ≤ 0.0078 mg/L and the MIC90 [8] was ≤ 0.0078 mg/L. The MIC [9] was ≤ 0.0078 mg/L, the MIC [10] was ≤ 0.0078 mg/L and the MIC [11] was ≤ 0.0078 mg/L. The MIC [12] was ≤ 0.0078 mg/L, the MIC [13] was ≤ 0.0078 mg/L and the MIC [14] was ≤ 0.0078 mg/L. The MIC [15] was ≤ 0.0078 mg/L, the MIC [16] was ≤ 0.0078 mg/L and the MIC [17] was ≤ 0.0078 mg/L. The MIC [18] was ≤ 0.0078 mg/L, the MIC [19] was ≤ 0.0078 mg/L and the MIC [20] was ≤ 0.0078 mg/L. For the same compound, the MIC [21] was ≤ 0.0078 mg/L, the MIC [22] was ≤ 0.0078 mg/L and the MIC [23] was ≤ 0.0078 mg/L. The MIC [24] was ≤ 0.0078 mg/L, the MIC [25] was ≤ 0.0078 mg/L and the MIC [26] was ≤ 0.0078 mg/L. For the same compound, the MIC [27] was ≤ 0.0078 mg/L, the MIC [28] was ≤ 0.0078 mg/L and the MIC [29] was ≤ 0.0078 mg/L. For the same compound, the MIC [30] was ≤ 0.0078 mg/L, the MIC [31] was ≤ 0.0078 mg/L and the MIC [32] was ≤ 0.0078 mg/L. The MIC [33] was ≤ 0.0078 mg/L, the MIC [34] was ≤ 0.0078 mg/L and the MIC [35] was ≤ 0.0078 mg/L. The MIC [36] was ≤ 0.0078 mg/L, the MIC [37] was ≤ 0.0078 mg/L and the MIC [38] was > 16 mg/L. For the same compound, the MIC [39] was > 16 mg/L, the MIC [40] was ≤ 0.0078 mg/L and the MIC [41] was ≤ 0.0078 mg/L. For the same compound, the MIC [42] was ≤ 0.0078 mg/L, the MIC [43] was ≤ 0.0078 mg/L and the MIC [44] was ≤ 0.0078 mg/L. The MIC [45] was ≤ 0.0078 mg/L, the MIC [46] was ≤ 0.0078 mg/L and the solubility [47] was “Insoluble”.
